Assay results: ChEMBL document CHEMBL3507680, “University of Dundee, Gates Library screen for HepG2 cell viability”

Test: Human HepG2 cell viability assay in 384 well format
Assay type: toxicity, cell-based
Parameters: dose 125 nL, time 70.5 hour; concentration not given beside the values
Conditions: HepG2 cells, read-out: Inhibition

SMILES | cytotoxicity at 70.5 h [%]
Cc1ccnc(NC(=O)c2[nH]nc(C(C)C)c2Br)c1 | 19.7
O=C(c1ccc(-n2cnnc2)cc1)N1CCCC(n2ccnc2)C1 (configuration not stated) | -8.88
Cc1cccc(NC2CCN(C(=O)Nc3cn[nH]c3)CC2)n1 | -6.92
Cc1cnn(CC2CCCN2Cc2nc(N)c3ccccc3n2)c1 (configuration not stated) | 45.2
Cc1cnn(CC2CCCN2Cc2ncc(-c3ccc(F)cc3)o2)c1 (configuration not stated) | 24
CCC(O)CN1CCN(C(=O)c2cccn2Cc2cccnc2)CC1 (configuration not stated) | 17.3
CCC(O)CN1CCN(C(=O)c2cccn2Cc2ccncc2)CC1 (configuration not stated) | 21.3
N#Cc1ccccc1N1CCCN(C(=O)CCc2cccs2)CC1 | -8.79
Fc1ccc(-c2nc(CN3CCCC3Cn3cncn3)co2)cc1F (configuration not stated) | 17.9
N#Cc1ccccc1N1CCCN(C(=O)CCc2ccco2)CC1 | -5.97
Fc1cccc(-c2nc(CN3CCCC3Cn3cccn3)co2)c1 (configuration not stated) | 15.8
O=C(c1cccc2c1OCCO2)N1CCCC1c1noc(C2CC2)n1 (configuration not stated) | -2.14
Cc1c(C(=O)NCC2CCS(=O)(=O)C2)cnn1-c1ccccc1 (configuration not stated) | -1.52
Cc1nc(CN2CCC(c3ccnn3CCO)CC2)oc1C | 1.65
Cc1noc(C)c1CN1CCC(c2ccnn2CCO)CC1 | -5.98
O=C(Cc1n[nH]c2ccccc12)N1CCCCC1Cn1cccn1 (configuration not stated) | 2.97
O=c1[nH]c(CCN2CCCC2Cn2cccn2)nc2ccccc12 (configuration not stated) | -9.61
Cc1nc(C2CCCN(C(=O)c3cc(-c4ccccc4)[nH]n3)C2)no1 (configuration not stated) | -3.98
Cc1noc2ncc(C(=O)N3CCCC3c3ccsc3)cc12 (configuration not stated) | -1.73
CN(Cc1nc2ccccc2o1)C1CCCN(c2cccnn2)C1 (configuration not stated) | 4.68
Cc1nc(C)n(CC2CCCCN2CC(=O)NC(C2CC2)C2CC2)n1 (configuration not stated) | 3.82
CCC(O)CN1CCN(C(=O)c2ccn(-c3ccccc3)n2)CC1 (configuration not stated) | 2.94
CCn1cnnc1CNC(=O)NC(C)c1ccccn1 (configuration not stated) | 9.12
CC(O)CN1CCN(C(=O)c2ccn(-c3ccccc3Cl)n2)CC1 (configuration not stated) | -2.57

SMILES | cytotoxicity at 70.5 h [%]
CN(Cc1nnc(C2CC2)o1)C1CCCN(c2cccnn2)C1 (configuration not stated) | -3.05
Cc1nc(CN(C)C2CCCN(c3cccnn3)C2)oc1C (configuration not stated) | 3.03
Cc1nnc2n1CCN(CCCS(=O)(=O)c1ccccc1)C2 | 0.781
CCOc1ncccc1CNC(=O)N1CCCC1c1ccsc1 (configuration not stated) | -0.934
CN(C)c1ncccc1CNC(=O)N1CCCC1c1cccs1 (configuration not stated) | 1.79
CC(=O)Nc1nc(C(=O)N2CCCC2c2ccc(Br)cc2)cs1 (configuration not stated) | 3.74
Cc1ccc(CN2CCC(NC(=O)c3scnc3C)CC2)cc1 | 3.8
CC(NC(=O)c1cccs1)C(=O)Nc1cccnc1N1CCCCC1 (configuration not stated) | 2.11
CCn1cnnc1CNC(=O)NC(C)c1ccc(Cl)s1 (configuration not stated) | -0.949
Cn1cnnc1C1CCN(C(=O)CCOc2ccc(Cl)cc2)CC1 | 19.2
Cc1ccc(OCCC(=O)N2CCC(c3nncn3C)CC2)c(C)c1 | 1.76
CC(C)(C)c1cc(NC(=O)CN2CCc3cncnc3C2)on1 | 3.44
Cc1cc(NC(=O)CN2CCc3cncnc3C2)no1 | 25.7
Cc1nc(C)n(CC2CCCN2CCC(=O)NC2CCCC2)n1 (configuration not stated) | 0.666
CS(=O)(=O)c1ccc(OCCCN2CCc3cncnc3C2)cc1 | 23.6
Cc1nc(C)n(CC2CCCCN2CC(=O)Nc2nnc(C)s2)n1 (configuration not stated) | 1.52
Cc1ccc2[nH]c(C(=O)N3CCCC3Cn3cccn3)cc2c1 (configuration not stated) | 4.08
CCOCC(O)CN1CCN(C(=O)c2cccc(CC#N)c2)CC1 (configuration not stated) | -1.07
O=C(c1cc2c(F)cccc2[nH]1)N1CCCCC1Cn1cccn1 (configuration not stated) | 3.2
COc1ccc(C(O)CN2CC(n3nc(C)cc3C)C2)cc1 (configuration not stated) | 1.87
Cc1cc(C)n(C2CN(CC(O)c3cc(F)ccc3F)C2)n1 (configuration not stated) | 6.16
Cc1ccc2cc(C(=O)N3CCCC3Cn3cccn3)[nH]c2c1 (configuration not stated) | 24.4
Cc1cc(C)n(C2CN(CC(O)c3ccc(S(C)(=O)=O)cc3)C2)n1 (configuration not stated) | 0.799
Cn1cc(CCNC(=O)NC2CCN(Cc3ccccn3)CC2)cn1 | 31.9

SMILES | cytotoxicity at 70.5 h [%]
CC(C)c1noc(CCCC(=O)NCC2CCS(=O)(=O)C2)n1 (configuration not stated) | 22.3
COc1cccc(CNc2cc(N3CCCC3CO)ncn2)n1 (configuration not stated) | -0.345
COc1c(C)cnc(CN2CCOC(CNc3cccnn3)C2)c1C (configuration not stated) | 3.14
CCN(Cc1ccc2c(c1)OCCO2)C(=O)NC(C)Cn1cccn1 (configuration not stated) | 0.788
O=C(Cc1ccc2c(c1)OCCO2)NC1CC1 | 0.821
O=C(Cc1ccc2c(c1)OCCO2)NC1CCCCC1 | -1.15
CN(C)c1cc(CNC(=O)c2cc(F)ccc2F)ccn1 | 0.104
Cc1cccc(-c2ccc(C(=O)NCC3CCOC3)c(=O)[nH]2)c1 (configuration not stated) | -28.7
COCCNC(=O)C1(c2ccccc2C)CCOCC1 | 17.1
Cc1ccccc1CN1CCN(Cc2nccn2C)CC1 | -8.12
CC(C)c1noc(C(C)N2CCN(CCN3CCCC3=O)CC2)n1 (configuration not stated) | -11.8
Cn1ccnc1CN1CCN(CC(=O)NCC(F)(F)F)CC1 | -10.6
CC(C)n1cc(CN2CCCN(C(=O)c3cc(Cl)c[nH]3)CC2)cn1 | 1.03
Cc1ccc(CNC(C)c2ccc3[nH]c(=O)[nH]c3c2)s1 (configuration not stated) | -1.82
Cn1ncc2c(=O)[nH]c(N3CCN(C(=O)c4ccsc4)CC3)nc21 | 14.1
CC(C)C(C(=O)N1CCC(Nc2cccnn2)CC1)n1cncn1 (configuration not stated) | -11.9
Cc1nc(N2CCN(C(=O)c3ccc(O)cc3)CC2)c2cnn(C)c2n1 | -18.5
CN(Cc1nnc(-c2ccco2)o1)C1CCCN(c2cccnn2)C1 (configuration not stated) | 36.8
CCOc1c(Cl)cccc1NCc1cc(C)on1 | 6.44
Cc1ccc(S(=O)(=O)N2CCOc3ccccc32)cc1C(=O)O | -1.56
COc1ccc(CNCc2ccnc(N3CCOCC3)c2)cc1OC | -10.1
CCc1ccc(O)c(C(=O)NC2CCN(S(=O)(=O)CC)CC2)c1 | 8.84
CCc1ccc(O)c(C(=O)NC2CCN(Cc3ccncc3)CC2)c1 | 17.7
CN(C)c1cc(CNC(=O)Nc2ccc(S(C)(=O)=O)nc2)ccn1 | -15.4

SMILES | cytotoxicity at 70.5 h [%]
CN1CCOC(CNC(=O)CCCOc2ccccc2F)C1 (configuration not stated) | -15.3
Cc1nn(C)c(N(C)C)c1CNCCNS(C)(=O)=O | -7.58
CN1CCOC(CNC(=O)CCCOCCc2ccccc2)C1 (configuration not stated) | -14.2
Cc1cnn(C2CCCN(C(=O)c3sccc3-n3cnnn3)C2)c1 (configuration not stated) | -2.63
Cc1nn(-c2ccccc2)c(C)c1CNC1CCc2ncnn2C1 (configuration not stated) | 1.33
Cc1nc(-c2nnc[nH]2)sc1C(=O)N(Cc1cccnc1)C1CC1 | 9.64
Cc1ccc(NC(=O)C2CSCN2C(=O)c2cnccn2)c(C)c1 (configuration not stated) | -5.93
Cc1ccc(NC(=O)C2CSCN2C(=O)c2cnn(C)c2)c(C)c1 (configuration not stated) | -4.99
Cc1c(F)cc(C(=O)O)cc1S(=O)(=O)Nc1ccc2c(c1)OCCO2 | -2.52
c1cc(-c2noc(CN3CCn4c(nnc4C4CC4)C3)n2)co1 | -0.323
Cc1cc(OCC(=O)NS(=O)(=O)c2c(C)noc2C)ccc1Cl | -7.45
CC(C)(C)c1nnc(CN2CCCC(Cn3cncn3)C2)o1 (configuration not stated) | -5.42
Cc1n[nH]c(C)c1C1COCCN1C(=O)c1ccccc1 (configuration not stated) | -8.5
COc1ccc(CNCc2ccnc(N3CCCCC3)c2)cc1OC | -4.98
Cn1cnc2c1CCN(Cc1csc(-c3ccsc3)n1)C2 | 20.4
Cc1noc(C2CCN(C(=O)CCc3nccs3)CC2)n1 | 21.5
CC(C)n1ccnc1CN1CCCN(C(=O)c2cccnc2O)CC1 | 23.5
CCc1nc(C2CCCN2CCc2ccccn2)no1 (configuration not stated) | 24.9
COc1cccc(-n2nnc(C(=O)N3CCN(C)CC3C)c2C)c1 (configuration not stated) | 56.4
Cc1noc(C2CCN(C(=O)CCNc3ncccn3)CC2)n1 | -1.06
CC(C)c1nc(CC(=O)N2CCCC(n3cncn3)C2)cs1 (configuration not stated) | 2.88
CNC(=O)COc1ccccc1CNC1CCc2ncnn2C1 (configuration not stated) | 29.2
CC(C)n1ccnc1CN1CCCN(C(=O)c2nccnc2N)CC1 | -16.3
O=C(NCCn1ccnc1)N1CCCC1c1ccsc1 (configuration not stated) | -4.3

SMILES | cytotoxicity at 70.5 h [%]
O=C(c1cc(C2CC2)on1)N1CCCC(n2cncn2)C1 (configuration not stated) | 30.6
O=C(Cc1cn2ccsc2n1)N1CCCC(n2cncn2)C1 (configuration not stated) | 0.86
O=C(Nc1cccc2c1CCCC2)C1CCCN1c1nccs1 (configuration not stated) | 2.35
O=C(c1ccc(OCC2CC2)nc1)N1CCCC(n2ccnc2)C1 (configuration not stated) | -14.6
CC1COCCN1C(=O)c1cccc(OCc2cscn2)c1 (configuration not stated) | -8.23
O=C(NCC1CCOC1)Nc1ccc(OCC(F)(F)F)nc1 (configuration not stated) | -10.7
Cc1ccc(Oc2ccc(NC(=O)NCC3CCOC3)cn2)cc1C (configuration not stated) | 4.23
COCC(C)N(C)C(=O)c1nc(S(C)(=O)=O)n2ccccc12 (configuration not stated) | -0.102
Cc1ccc(C(=O)N2CCN(CCc3cccs3)CC2)c(=O)[nH]1 | -8.54
Cc1cc(C2CCCN2Cc2ccn(C)c(=O)c2)no1 (configuration not stated) | -1.78
Cn1ccc(CN2CCC(NC(=O)Cc3ccccc3)CC2)cc1=O | 2.35
Cc1cnn(C2CCCN(C(=O)c3cc(C4CC4)on3)C2)c1 (configuration not stated) | -4.84
Cc1ccc(-c2nc(CN3CCc4c(ncn4C)C3)cs2)o1 | 36.9
O=C(c1cc(C2CC2)[nH]n1)N1CCCC(n2cncn2)C1 (configuration not stated) | -0.297
O=C1NCc2ccc(NC(=O)C3CCCN3c3nccs3)cc21 (configuration not stated) | -9.24
CS(=O)(=O)NCC1CCCN(C(=O)COc2ccc(F)cc2)C1 (configuration not stated) | -15.8
NC(=O)CN1CCC(NC(=O)Nc2nccs2)CC1 | 21.5
O=C(Nc1nnc(C2CC2)s1)NC1CCN(Cc2ccccc2)C1 (configuration not stated) | -28
Cc1cccc(N2CCN(C(=O)Nc3cnn(CC(N)=O)c3)CC2)c1 | -18.1
Cc1noc(C2CCN(C(=O)c3ccc(NC4CC4)nc3)CC2)n1 | -10.2
Cc1ccc(C(CNC(=O)NCc2cc[nH]n2)N2CCOCC2)o1 (configuration not stated) | -14.3
